Assays:
Test in all cases: relative viability (nuclei count vs DMSO), 5 days (fraction); higher = more cells survive
Omipalisib + AZD7762 = compound: COc1ncc(-c2ccc3nccc(-c4ccnnc4)c3c2)cc1NS(=O)(=O)c1ccc(F)cc1F [Omipalisib] + NC(=O)Nc1cc(-c2cccc(F)c2)sc1C(=O)N[C@H]1CCCNC1 [AZD7762] (partner 0.2 µM)
Method in brief: (§1)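 Nuclei were stained with Hoechst during a one-step fixation (final 0.05% Triton X-100, 1% formaldehyde, 1 ug/ml Hoechst) carried out 5 days after dosing, then counted on 4× images. The cells, lung cancer lines in 1536-well plates, had been dosed by pin tool the day after seeding with one drug alone or a fixed anchor-drug dose plus five library-drug doses (not always all listed) in √10 steps. Relative viability is the nuclei count in treated wells divided by that in vehicle wells, and each value is the median of duplicate plates.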

Omipalisib + Palbociclib = compound: COc1ncc(-c2ccc3nccc(-c4ccnnc4)c3c2)cc1NS(=O)(=O)c1ccc(F)cc1F [Omipalisib] + CC(=O)c1c(C)c2cnc(Nc3ccc(N4CCNCC4)cn3)nc2n(C2CCCC2)c1=O [Palbociclib] (partner 0.5 µM)
Method in brief: as §1

Omipalisib + Foretinib = compound: COc1ncc(-c2ccc3nccc(-c4ccnnc4)c3c2)cc1NS(=O)(=O)c1ccc(F)cc1F [Omipalisib] + COc1cc2c(Oc3ccc(NC(=O)C4(C(=O)Nc5ccc(F)cc5)CC4)cc3F)ccnc2cc1OCCCN1CCOCC1 [Foretinib] (partner 0.25 µM)
Method in brief: as §1

Omipalisib + Phenformin = compound: COc1ncc(-c2ccc3nccc(-c4ccnnc4)c3c2)cc1NS(=O)(=O)c1ccc(F)cc1F [Omipalisib] + N=C(N)NC(=N)NCCc1ccccc1 [Phenformin] (partner 250 µM)
Method in brief: as §1

Omipalisib + Dasatinib = compound: COc1ncc(-c2ccc3nccc(-c4ccnnc4)c3c2)cc1NS(=O)(=O)c1ccc(F)cc1F [Omipalisib] + Cc1nc(Nc2ncc(C(=O)Nc3c(C)cccc3Cl)s2)cc(N2CCN(CCO)CC2)n1 [Dasatinib] (partner 0.075 µM)
Method in brief: as §1

Omipalisib + Olaparib = compound: COc1ncc(-c2ccc3nccc(-c4ccnnc4)c3c2)cc1NS(=O)(=O)c1ccc(F)cc1F [Omipalisib] + O=C(c1cc(Cc2n[nH]c(=O)c3ccccc23)ccc1F)N1CCN(C(=O)C2CC2)CC1 [Olaparib] (partner 8 µM)
Method in brief: as §1

| Cell Line | relative viability (Omipalisib + AZD7762; first compound 0.0003 µM) | relative viability (Omipalisib + AZD7762; first compound 0.003 µM) | relative viability (Omipalisib + AZD7762; first compound 0.03 µM) | relative viability (Omipalisib + Palbociclib; first compound 0.0003 µM) | relative viability (Omipalisib + Palbociclib; first compound 0.003 µM) | relative viability (Omipalisib + Palbociclib; first compound 0.03 µM) | relative viability (Omipalisib + Foretinib; first compound 0.0003 µM) | relative viability (Omipalisib + Foretinib; first compound 0.003 µM) | relative viability (Omipalisib + Foretinib; first compound 0.03 µM) | relative viability (Omipalisib + Phenformin; first compound 0.0003 µM) | relative viability (Omipalisib + Phenformin; first compound 0.003 µM) | relative viability (Omipalisib + Phenformin; first compound 0.03 µM) | relative viability (Omipalisib + Dasatinib; first compound 0.0003 µM) | relative viability (Omipalisib + Dasatinib; first compound 0.003 µM) | relative viability (Omipalisib + Dasatinib; first compound 0.03 µM) | relative viability (Omipalisib + Olaparib; first compound 0.0003 µM) | relative viability (Omipalisib + Olaparib; first compound 0.003 µM) | relative viability (Omipalisib + Olaparib; first compound 0.03 µM) |
| --- | --- | --- | --- | --- | --- | --- | --- | --- | --- | --- | --- | --- | --- | --- | --- | --- | --- | --- |
| LU99A | 0.291 | 0.265 | 0.165 | 0.396 | 0.24 | 0.183 | 0.718 | 0.464 | 0.327 | 0.802 | 0.695 | 0.578 | 0.482 | 0.331 | 0.267 | 0.271 | 0.27 | 0.214 |
| LXF-289 | 1.11 | 1.26 | 0.911 | 0.62 | 0.574 | 0.416 | 0.977 | 0.912 | 0.626 | 0.505 | 0.416 | 0.396 | 0.235 | 0.119 | 0.0562 | 0.943 | 1.05 | 0.455 |
| NCI-H23 | 0.278 | 0.227 | 0.223 | 0.391 | 0.239 | 0.211 | 0.851 | 0.681 | 0.461 | 0.773 | 0.635 | 0.576 | 0.826 | 0.468 | 0.332 | 0.384 | 0.242 | 0.143 |
| NCI-H322M | 0.54 | 0.455 | 0.482 | 0.427 | 0.446 | 0.449 | 0.888 | 0.684 | 0.566 | 0.739 | 0.57 | 0.453 | 0.234 | 0.245 | 0.257 | 0.802 | 0.815 | 0.515 |
| NCI-H358 | 0.43 | 0.366 | 0.244 | 0.148 | 0.139 | 0.131 | 0.626 | 0.591 | 0.371 | 0.259 | 0.211 | 0.145 | 0.127 | 0.11 | 0.131 | 0.544 | 0.38 | 0.324 |
| NCI-H441 | 1.02 | 1.02 | 0.717 | 0.213 | 0.19 | 0.139 | 0.761 | 0.657 | 0.434 | 0.703 | 0.659 | 0.318 | 0.494 | 0.37 | 0.339 | 0.55 | 0.321 | 0.37 |
| NCI-H460 | 0.645 | 0.621 | 0.277 | 0.147 | 0.0934 | 0.0384 | 1.04 | 1.01 | 0.347 | 0.461 | 0.24 | 0.0524 | 0.385 | 0.288 | 0.0813 | 0.337 | 0.373 | 0.167 |
| NCI-H647 | 0.403 | 0.322 | 0.215 | 0.263 | 0.21 | 0.179 | 1.16 | 0.965 | 0.603 | 0.402 | 0.267 | 0.185 | 0.162 | 0.0952 | 0.0677 | 0.582 | 0.426 | 0.233 |
| NCI-H650 | 0.817 | 0.766 | 0.7 | 0.297 | 0.275 | 0.222 | 1.04 | 0.877 | 0.613 | 0.443 | 0.401 | 0.332 | 0.469 | 0.317 | 0.266 | 0.366 | 0.33 | 0.245 |
| NCI-H727 | 0.627 | 0.486 | 0.412 | 0.644 | 0.487 | 0.552 | 0.937 | 0.609 | 0.421 | 0.817 | 0.447 | 0.509 | 0.353 | 0.327 | 0.366 | 0.754 | 0.612 | 0.598 |
| NCI-H838 | 0.895 | 0.828 | 0.725 | 0.221 | 0.184 | 0.146 | 0.953 | 0.703 | 0.375 | 0.566 | 0.397 | 0.195 | 0.263 | 0.223 | 0.23 | 0.745 | 0.564 | 0.302 |
| NCI-H1355 | 0.699 | 0.571 | 0.358 | 0.358 | 0.239 | 0.198 | 0.764 | 0.643 | 0.416 | 0.433 | 0.351 | 0.277 | 0.596 | 0.402 | 0.307 | 0.731 | 0.52 | 0.278 |
| NCI-H1395 | 0.424 | 0.398 | 0.379 | 0.623 | 0.563 | 0.464 | 0.916 | 0.886 | 0.586 | 0.414 | 0.403 | 0.393 | 0.417 | 0.362 | 0.348 | 0.501 | 0.421 | 0.371 |
| NCI-H1437 | 1.17 | 1 | 0.395 | 0.363 | 0.307 | 0.218 | 1.26 | 1.35 | 0.918 | 0.334 | 0.249 | 0.333 | 0.411 | 0.323 | 0.202 | 0.673 | 0.603 | 0.537 |
| NCI-H1651 | 0.521 | 0.434 | 0.359 | 0.464 | 0.401 | 0.294 | 0.664 | 0.497 | 0.489 | 0.274 | 0.307 | 0.214 | 0.342 | 0.297 | 0.272 | 0.177 | 0.177 | 0.172 |
| NCI-H1666 | 0.852 | 0.81 | 0.552 | 0.641 | 0.632 | 0.658 | 0.92 | 0.819 | 0.629 | 0.547 | 0.559 | 0.487 | 0.787 | 0.673 | 0.539 | 0.687 | 0.749 | 0.686 |
| NCI-H1734 | 0.495 | 0.321 | 0.201 | 0.278 | 0.238 | 0.205 | 0.754 | 0.446 | 0.268 | 0.341 | 0.265 | 0.183 | 0.396 | 0.243 | 0.194 | 0.56 | 0.364 | 0.226 |
| NCI-H1755 | 0.471 | 0.382 | 0.328 | 0.428 | 0.421 | 0.362 | 0.911 | 0.821 | 0.51 | 0.625 | 0.522 | 0.457 | 0.445 | 0.271 | 0.236 | 0.932 | 0.715 | 0.362 |
| NCI-H1793 | 0.402 | 0.215 | 0.263 | 0.243 | 0.215 | 0.15 | 0.559 | 0.399 | 0.244 | 0.372 | 0.22 | 0.188 | 0.331 | 0.279 | 0.273 | 0.576 | 0.368 | 0.196 |
| NCI-H1915 | 0.777 | 0.736 | 0.624 | 0.509 | 0.483 | 0.446 | 1.05 | 1.08 | 0.983 | 0.368 | 0.389 | 0.366 | 0.278 | 0.257 | 0.275 | 0.288 | 0.267 | 0.244 |
| NCI-H1944 | 0.406 | 0.345 | 0.262 | 0.264 | 0.25 | 0.169 | 0.811 | 0.457 | 0.31 | 0.183 | 0.148 | 0.126 | 0.194 | 0.17 | 0.156 | 0.334 | 0.349 | 0.203 |
| NCI-H1975 | 0.711 | 0.446 | 0.305 | 0.669 | 0.248 | 0.173 | 0.991 | 0.672 | 0.287 | 0.412 | 0.292 | 0.162 | 0.33 | 0.249 | 0.113 | 0.882 | 0.521 | 0.239 |
| NCI-H1993 | 0.45 | 0.403 | 0.382 | 0.547 | 0.391 | 0.393 | 0.805 | 0.633 | 0.594 | 0.558 | 0.552 | 0.586 | 0.498 | 0.545 | 0.486 | 1.05 | 0.624 | 0.398 |
| NCI-H2085 | 1.06 | 0.84 | 0.385 | 0.553 | 0.479 | 0.33 | 0.95 | 0.884 | 0.26 | 0.869 | 0.429 | 0.303 | 0.258 | 0.194 | 0.227 | 0.829 | 0.713 | 0.303 |
| NCI-H2087 | 1.29 | 1.55 | 0.772 | 0.247 | 0.219 | 0.146 | 1.17 | 0.809 | 0.557 | 0.43 | 0.267 | 0.289 | 0.8 | 0.566 | 0.614 | 0.602 | 0.344 | 0.291 |
| NCI-H2126 | 1.02 | 0.795 | 0.657 | 0.344 | 0.344 | 0.317 | 1.01 | 0.718 | 0.342 | 0.489 | 0.425 | 0.292 | 0.545 | 0.366 | 0.301 | 0.888 | 0.725 | 0.412 |
| NCI-H2170 | 0.684 | 0.376 | 0.375 | 0.301 | 0.236 | 0.173 | 0.945 | 0.565 | 0.565 | 0.459 | 0.432 | 0.375 | 0.517 | 0.426 | 0.453 | 0.534 | 0.456 | 0.226 |
| NCI-H2342 | 0.47 | 0.434 | 0.383 | 0.459 | 0.442 | 0.406 | 0.816 | 0.688 | 0.453 | 0.56 | 0.482 | 0.424 | 0.298 | 0.294 | 0.243 | 0.411 | 0.376 | 0.239 |
| NCI-H2347 | 0.843 | 0.529 | 0.375 | 0.393 | 0.432 | 0.4 | 0.905 | 0.699 | 0.454 | 0.329 | 0.226 | 0.244 | 0.286 | 0.253 | 0.26 | 0.527 | 0.514 | 0.407 |

Reference: the supplement of paper PMC10307832
